# In patent publication US11464854B2, “Methods and compositions relating to adjuvants” (Children's Medical Center Corporation, priority 2017, dated 2022):
# Experiments:
# [1] = test system: influenza hemagglutinin (HA); experiment: Mouse immunization with influenza hemagglutinin (HA), HA-specific serum Ig by ELISA; format: in vivo, Balb/c mice; details: three times, Day 77
# [2] = test system: TNF; experiment: Rat pharmacodynamics: serum TNF by ELISA; format: in vivo, rats; details: rats, single IM or SC administration
# [3] = target: T1, human TLR8 (Homo sapiens, UniProt Q9NR97); details: HEK293 cells stably expressing human TLR8 (ref. 24); cited from earlier work
# T1 construct: host or cells: HEK293 with NF-kB-responsive SEAP reporter
# T1 sequence (Q9NR97 27-1041): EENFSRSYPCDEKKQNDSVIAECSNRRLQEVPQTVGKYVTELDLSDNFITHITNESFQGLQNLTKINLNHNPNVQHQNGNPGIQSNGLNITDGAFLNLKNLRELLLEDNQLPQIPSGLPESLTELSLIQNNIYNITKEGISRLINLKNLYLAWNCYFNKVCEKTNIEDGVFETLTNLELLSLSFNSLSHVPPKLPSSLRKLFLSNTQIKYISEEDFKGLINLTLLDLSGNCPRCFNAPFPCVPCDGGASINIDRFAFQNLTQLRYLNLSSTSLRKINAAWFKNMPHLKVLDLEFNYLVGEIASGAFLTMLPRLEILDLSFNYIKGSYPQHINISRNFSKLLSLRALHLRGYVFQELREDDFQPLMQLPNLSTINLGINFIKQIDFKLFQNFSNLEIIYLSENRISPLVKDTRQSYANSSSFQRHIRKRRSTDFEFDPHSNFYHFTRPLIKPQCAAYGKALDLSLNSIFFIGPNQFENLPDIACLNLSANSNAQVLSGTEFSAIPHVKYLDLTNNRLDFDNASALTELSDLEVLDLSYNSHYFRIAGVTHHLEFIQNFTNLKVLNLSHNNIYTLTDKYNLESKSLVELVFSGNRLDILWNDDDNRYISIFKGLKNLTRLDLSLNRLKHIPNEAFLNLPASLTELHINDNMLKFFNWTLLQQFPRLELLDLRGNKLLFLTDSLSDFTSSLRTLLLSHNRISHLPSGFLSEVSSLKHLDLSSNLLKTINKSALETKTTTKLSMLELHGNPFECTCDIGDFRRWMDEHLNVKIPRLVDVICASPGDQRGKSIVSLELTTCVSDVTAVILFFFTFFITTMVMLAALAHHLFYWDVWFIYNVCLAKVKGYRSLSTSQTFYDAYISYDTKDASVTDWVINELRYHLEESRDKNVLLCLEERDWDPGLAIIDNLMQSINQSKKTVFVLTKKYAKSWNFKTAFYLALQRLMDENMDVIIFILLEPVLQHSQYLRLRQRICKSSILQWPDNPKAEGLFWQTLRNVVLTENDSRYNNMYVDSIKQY
# [4] = test system: human neonatal and adult blood; experiment: Human whole blood assay, cytokine induction (3M-052, PCV13); format: cell-based; details: 6 hours, concentration-dependent, each agent alone
# Source text: Human blood sample processing and in vitro stimulation. Peripheral blood was collected from healthy adult volunteers, while human newborn cord blood was collected immediately after Cesarean section delivery of the placenta. Births to known HIV-positive mothers were excluded. Human experimentation guidelines of the U.S. Department of Health and Human Services, The Brigham & Women's Hospital, Beth Israel Deaconess Medical Center Boston, and Boston Children's Hospital were observed, following protocols approved by the local institutional review boards. Human blood was anti-coagulated with 20 units/ml pyrogen-free sodium heparin (American Pharmaceutical Partners, Inc.; Schaumberg, Ill.). All blood products were kept at room temperature and processed within 4 hours from collection. […] Additionally, whole blood assay supernatants were analyzed by multiplex cytokine assays (Millipore; Billerica, Mass., USA). […]
# TLR agonists and multi-analyte assays. […] Cytokine and chemokine expression profiles in cell culture supernatants and peripheral blood plasma were measured using customized Milliplex human and non-human primate cytokine/chemokine magnetic bead panels (Millipore), respectively. Assays were analyzed on the Luminex® 100/200™ System employing xPOTENT® software (Luminex; Austin, Tex.) and Millipore Milliplex Analyst (version 3.5.5.0).
# [5] = target: T1, human TLR8; experiment: HEK293 NF-kB SEAP reporter assay, human TLR8; format: cell-based
# Method: Human embryonic kidney (HEK)293 cells expressing human TLR7 or TLR8 with an NF-κB-responsive secreted embryonic alkaline phosphatase (SEAP) reporter gene were obtained from Novus Biologicals (Littleton, Colo.) and Invivogen (San Diego, Calif.), respectively. Cells were maintained in DMEM with 10% HI-FBS and selection antibiotics per the manufacturer's instructions. Cells were plated at 5×10^5 cells/96-well and stimulated with indicated agonist(s) for 24 h. Supernatants were harvested and analyzed for NF-κB/SEAP activation using the QuantiBlue™ kit (Invivogen). Values are expressed as fold change in OD650 over vehicle-only treated samples.
# [6] = Adsorption onto alum derived from DTaP vaccine (RP-HPLC); format: physicochemical; details: within 1-2 hr, all circumstances tested
Compound,"antigen-specific IgG levels (IgG1, IgG2a) ([1]; HA 10 μg with 0.01-1 mg/kg 3M-052 SC)","HA-specific IgG2a Ab production ([1]; added to Alum-adjuvanted HA 10 μg, 0.1 mg/kg 3M-052 SC)","Blood tumor necrosis factor (TNF) concentrations, peak [2]","agonist activity, human TLR8 [3]",production of TNF [4],TLR7 vs. TLR8 selectivity ([5]; HEK293 assay),"potency for hTLR8 ([5]; among six IMQ and OA compounds, SEAP fold change)",adsorption to the alum/antigen [6]
"CCCCCCCCCCCCCCCCCC(=O)NCCCCOn1c(CCCC)nc2c(N)nc3ccccc3c21 [3M-052, N-[4-[(4-amino-2-butyl-1H-imidazo[4,5-c]quinolin-1-yl)oxy]butyl]octadecanamide]",enhances antigen-specific IgG levels,markedly enhances,no induced systemic TNF detectable,Dual agonist activity,significantly inducing production of TNF over baseline,,,
CCCCc1nc2c(N)nc3ccccc3c2n1CCO [CRX-649],,,,,,preference for TLR8,greatest potency,4-7%
